Assay results from patent US20120028976A1, “PHARMACOKINETICALLY-BASED DOSING REGIMENTS OF A THROMBIN RECEPTOR ANTAGONIST” (priority 2008, published 2012).
Like-named read-outs stand apart in the source and are kept apart here.

Columns and labels:
[1] = Rising single dose (RSD) study: pharmacokinetics of orally administered COMPOUND 1 in healthy subjects; assay type: in vivo, human; settings: for Cmax / AUC(0-t) / Tmax: po; for time for which plasma concentrations were quantifiable: LLOQ 0.1 ng/ml
Excerpt: (§1) Phase I clinical studies were designed to evaluate the pharmacokinetics of COMPOUND 1 in healthy subjects after rising single and multiple doses. The study included a randomized, evaluator-blind, placebo-controlled, rising single dose (“RSD”) study and a rising multiple dose (“RSM”) study of orally administered COMPOUND 1 in healthy subjects.
(§2) In the single-dose study, 50 healthy males were enrolled into 6 sequential cohorts and randomized to receive in ascending dose manner placebo (n=2-3/group) or oral COMPOUND 1 (0.25, 1, 5, 10, 20 and 40 mg; n=5-6/group). In the multiple-dose study, 36 healthy subjects were enrolled into 3 sequential cohorts and randomized to receive in ascending-dose manner placebo (n=4/group) or oral COMPOUND 1(1, 3, and 5 mg OD in the morning for 28 days, n=8/group). A fourth cohort in the same study (n=12) was randomized to receive a single loading dose of COMPOUND 1, 10 mg (n=6) or 20 mg (n=6) on Day 1, followed by maintenance doses of 1 mg daily for 6 days. Measured and derived pharmacokinetic parameters were used to assess the pharmacokinetic profile. The doses were administered using appropriate combinations of the capsule formulations disclosed in Table 1.
Several observations were made from the data collected in the RSD Study. […] Tmax ranged from 0.5 to 2 hrs after dosing.
To estimate the terminal-phase half-life (t½) of COMPOUND 1, samples were collected from subjects in the 20 mg and 40 mg dose groups for up to 64 days after dosing. […] Plasma concentrations were quantifiable for up to 53 days in subjects administered 20 mg and up to 62 days in subjects administered 40 mg.

[2] = clinical; settings: human, in vivo
Excerpt: as §1, §2
Variability was low to moderate.
The RMD study also allowed evaluation of COMPOUND 1 accumulation. Mean accumulation index (R) values ranged from 4.72 to 6.37. The effective half-lives determined from R values ranged from 59.8 to 141 hrs.

[3] = single oral dose 40 mg, maximum individual value
[4] = single oral dose 40 mg, minimum individual value

CCOC(=O)N[C@@H]1CC[C@@H]2[C@@H](C1)C[C@H]1C(=O)O[C@H](C)[C@H]1[C@H]2/C=C/c1ccc(-c2cccc(F)c2)cn1 [COMPOUND 1]
time to maximal plasma levels ([1]; across all doses in both studies (single and multiple oral dosing)): 60 to 90 min
half-life ([1]; male, human, plasma, oral, subjects of the 20 mg and 40 mg single dose groups, samples up to 64 days after dosing, read-out: apparent terminal-phase half-life (t1/2)): 126 to 269 h
Cmax ([1]; male, human, plasma, 0.25 mg, single oral dose 0.25 mg, n=6, healthy males, plasma, mean (CV %), read-out: Cmax): 2.23 ng/mL
AUC(0-t) ([1]; male, human, plasma, 0.25 mg, single oral dose 0.25 mg, n=6, mean (CV %), read-out: AUC(0-72 hr)): 33.7 ng·h/mL
Tmax ([1]; male, human, plasma, 0.25 mg, single oral dose 0.25 mg, n=6, value (range), read-out: Tmax): 1 h
AUC(0-t) ([1]; male, human, plasma, 1 mg, single oral dose 1 mg, n=6, mean (CV %), read-out: AUC(0-72 hr)): 142 ng·h/mL
Cmax ([1]; male, human, plasma, 1 mg, single oral dose 1 mg, n=6, mean (CV %), read-out: Cmax): 9.29 ng/mL
Tmax ([1]; male, human, plasma, 1 mg, single oral dose 1 mg, n=6, value (range), read-out: Tmax): 1.25 h
AUC(0-t) ([1]; male, human, plasma, 5 mg, single oral dose 5 mg, n=6, mean (CV %), read-out: AUC(0-72 hr)): 740 ng·h/mL
Cmax ([1]; male, human, plasma, 5 mg, single oral dose 5 mg, n=6, mean (CV %), read-out: Cmax): 51.4 ng/mL
Tmax ([1]; male, human, plasma, 5 mg, single oral dose 5 mg, n=6, value (range), read-out: Tmax): 0.75 h
AUC(0-t) ([1]; male, human, plasma, 10 mg, single oral dose 10 mg, n=6, mean (CV %), read-out: AUC(0-72 hr)): 1510 ng·h/mL
Cmax ([1]; male, human, plasma, 10 mg, single oral dose 10 mg, n=6, mean (CV %), read-out: Cmax): 99.2 ng/mL
Tmax ([1]; male, human, plasma, 10 mg, single oral dose 10 mg, n=6, value (range), read-out: Tmax): 1.5 h
AUC(0-t) ([1]; male, human, plasma, 20 mg, single oral dose 20 mg, n=5, mean (CV %), read-out: AUC(0-72 hr)): 3350 ng·h/mL
Cmax ([1]; male, human, plasma, 20 mg, single oral dose 20 mg, n=5, mean (CV %), read-out: Cmax): 183 ng/mL
Tmax ([1]; male, human, plasma, 20 mg, single oral dose 20 mg, n=5, value (range), read-out: Tmax): 1.5 h
Tmax ([1]; male, human, plasma, 40 mg, loading dose 40 mg, single oral (Table 3), read-out: Tmax range): 0.5 to 1.5 h
AUC(0-t) ([1]; male, human, plasma, 40 mg, loading dose 40 mg, single oral, range of individual values (Table 3), read-out: AUC(0-72 hr) range): 4740 to 7510 ng·h/mL
Cmax ([1]; male, human, plasma, 40 mg, loading dose 40 mg, single oral, range of individual values (Table 3), read-out: Cmax range): 238 to 511 ng/mL
AUC(0-t) ([1]; male, human, plasma, 40 mg, single oral dose 40 mg, n=5, mean (CV %), read-out: AUC(0-72 hr), Mean): ~6030 ng·h/mL
Cmax ([1]; male, human, plasma, 40 mg, single oral dose 40 mg, n=5, mean (CV %), read-out: Cmax, Mean): ~376 ng/mL
Tmax ([1]; male, human, plasma, 40 mg, single oral dose 40 mg, n=5, value (range), read-out: Tmax, Mean): 1.5 h
Tmax ([1]; male, human, plasma, 40 mg, single oral dose 40 mg, Tmax corresponding to maximum individual Cmax, read-out: Tmax, Max): 1.5 h
Tmax ([1]; male, human, plasma, 40 mg, single oral dose 40 mg, Tmax corresponding to minimum individual Cmax, read-out: Tmax): 0.5 h
Tmax ([1]; male, human, plasma, single oral doses 0.25 to 40 mg, all dose groups, read-out: Tmax range after dosing): 0.5 to 2 h
dose relation of exposure ([1]; single doses up to 40 mg, FIG. 2): dose related
time for which plasma concentrations were quantifiable ([1]; single oral dose 20 mg): up to 53 days
time for which plasma concentrations were quantifiable ([1]; single oral dose 40 mg): up to 62 days
AUC(0-72 hr), Max [1, 3]: 7508 ng·h/mL
Cmax, Max [1, 3]: 511 ng/mL
AUC(0-72 hr), Min [1, 4]: 4745 ng·h/mL
Cmax, Min [1, 4]: 238 ng/mL
coefficient of variability (CV) for AUC(0-24 h) [2]: 14-34%
dose relation of exposure [2]: increased in a dose-related manner
AUC(0-24 hr) Mean ([2]; 1 mg): 58.5 ng·h/mL
Cmax Mean ([2]; 1 mg): 9.78 ng/mL
AUC(0-24 hr) Mean ([2]; 3 mg): 225 ng·h/mL
Cmax ([2]; 3 mg, Cmax Mean): 38.2 ng/mL
Tmax ([2]; 3 mg, Tmax Median): 1 h
AUC(0-24 hr) Mean ([2]; 5 mg): 315 ng·h/mL
Cmax Mean ([2]; 5 mg): 56.4 ng/mL
effective half-lives determined from R values ([2]; 5 mg): 60 to 141 h
Tmax ([2]; 5 mg, Tmax Median): 1 h
half-life ([2]; 5 mg, effective half-lives determined from R values): 59.8 to 141 h
Mean accumulation index (R) values, range over dose groups ([2]; 28 days): 4.72-6.37
half-life ([2]; Mean terminal-phase half-life (t1/2), range over dose groups): 173 to 269 h
Tmax ([2]; Median Tmax values, range over dose groups): 1 to 1.5 h
Tmax ([2]; Tmax Median): 1 h
